Assay [1] addresses K-Ras^G12C : hSOS1 interaction (Homo sapiens, UniProt Q07889). Kind of assay: Biochemical assay 1: K-Ras^G12C interaction assay with hSOS1 (HTRF). In kind it is binding. Conditions: E-notation values; unit inferred; read-out: Assay 1 (KRAS-SOS interaction) IC50.
The target in assay [2] is human SOS1 (nucleotide exchange of K-Ras^G12C) (Homo sapiens, UniProt Q07889). Kind of assay: Biochemical assay 2: K-Ras^G12C activation assay by hSOS1 at high GTP concentration (HTRF). Conditions: E-notation values; unit inferred; 50 μM GTP; read-out: Assay 2 (KRAS-Activation, high GTP) IC50.

For the molecule `CC(=O)NCCNc1ccc2nc(C)nc(NC(C)c3ccc(-c4ccccc4CN(C)C)s3)c2c1` (stereo not drawn) [Example 427, N-{2-[(4-{[1-(5-{2-[(dimethylamino)methyl]phenyl}thiophen-2-yl)ethyl]amino}-2-methylquinazolin-6-yl)amino]ethyl}acetamide], the values for the half-maximal inhibitory concentration (IC50) in assay [1] and in assay [2] were 0.0584 µM and 0.0498 µM, respectively.

As for `COc1cc2nc(C)nc(NC(C)c3sc(Br)cc3Cl)c2cc1OC` (stereo not drawn) [Example 428, N-[1-(5-bromo-3-chlorothiophen-2-yl)ethyl]-6,7-dimethoxy-2-methylquinazolin-4-amine], the IC50 in assay [1] is 0.916 µM; in assay [2], 0.705 µM.

Consider `COc1cc2nc(C)nc(NC(C)c3sc(-c4ccccc4CNC(=O)OC(C)(C)C)cc3Cl)c2cc1OC` (stereo not drawn) [Example 429, tert-butyl [2-(4-chloro-5-{1-[(6,7-dimethoxy-2-methylquinazolin-4-yl)amino]ethyl}thiophen-2-yl)benzyl]carbamate], for which the figures for the half-maximal inhibitory concentration (IC50) in assay [1] and in assay [2] were 6.09 µM and 3.05 µM, respectively.

Consider `COc1cc2nc(C)nc(NC(C)c3cc(Cl)c(-c4ccccc4CN)s3)c2cc1OC` (stereo not drawn) [Example 430, N-[1-{5-[2-(aminomethyl)phenyl]-4-chlorothiophen-2-yl}ethyl]-6,7-dimethoxy-2-methylquinazolin-4-amine], for which the 50% inhibitory concentration (IC50) in assay [1] is 0.594 µM; in assay [2] it was 0.378 µM.

In the case of `COc1cc2nc(C)nc(NC(C)c3cc(Cl)c(-c4ccccc4CN(C)C)s3)c2cc1OC` (stereo not drawn) [Example 431, N-[1-(4-chloro-5-{2-[(dimethylamino)methyl]phenyl}thiophen-2-yl)ethyl]-6,7-dimethoxy-2-methylquinazolin-4-amine], the IC50 in assay [1] worked out at 0.324 µM; in assay [2], 0.215 µM.

For `COc1cc2nc(C)nc(NC(C)c3cc(Cl)c(Br)s3)c2cc1OC` (stereo not drawn) [Example 432, N-[1-(5-bromo-4-chlorothiophen-2-yl)ethyl]-6,7-dimethoxy-2-methylquinazolin-4-amine], the figures for the IC50 in assay [1] and in assay [2] were 16.7 µM and 15.7 µM, respectively.

`Cc1nc(NC(C)c2ccc(-c3ccccc3CN(C)C)s2)c2cc(NCCN3CCOCC3)ccc2n1` (stereo not drawn) [Example 433, N4-[1-(5-{2-[(dimethylamino)methyl]phenyl}-2-thienyl)ethyl]-2-methyl-N6-[2-(morpholin-4-yl)ethyl]quinazoline-4,6-diamine]: the half-maximal inhibitory concentration (IC50) was 0.0771 µM in assay [1] and 0.0701 µM in assay [2].

Consider `Cc1nc(NC(C)c2ccc(Br)s2)c2cc(N3CCN(C)C(=O)C3)ccc2n1` (stereo not drawn) [Example 434, 4-(4-{[1-(5-bromothiophen-2-yl)ethyl]amino}-2-methylquinazolin-6-yl)-1-methylpiperazin-2-one], for which the IC50 turned out to be 2.84 µM in assay [1] and 2.39 µM in assay [2].

Take `Cc1nc(NC(C)c2ccc(-c3ccccc3CN(C)C)s2)c2cc(N3CCN(C)C(=O)C3)ccc2n1` (stereo not drawn) [Example 435, 4-(4-{[1-(5-{2-[(dimethylamino)methyl]phenyl}thiophen-2-yl)ethyl]amino}-2-methylquinazolin-6-yl)-1-methylpiperazin-2-one]: the concentration for half-maximal inhibition (IC50) was 0.0844 µM in assay [1] and 0.0519 µM in assay [2].

For the molecule `COC(=O)C(C)(C)c1ccccc1-c1ccc(C(C)Nc2nc(C)nc3cc(OC)c(OC)cc23)s1` (stereo not drawn) [Example 436, methyl 2-[2-(5-{1-[(6,7-dimethoxy-2-methylquinazolin-4-yl)amino]ethyl}thiophen-2-yl)phenyl]-2-methylpropanoate], the half-maximal inhibitory concentration (IC50) in assay [1] came to 2.39 µM; in assay [2], 1.47 µM.

In the case of `COc1cc2nc(C)nc(NC(C)c3sc(-c4ccccc4CN)cc3Cl)c2cc1OC` (stereo not drawn) [Example 437, N-[1-{5-[2-(aminomethyl)phenyl]-3-chlorothiophen-2-yl}ethyl]-6,7-dimethoxy-2-methylquinazolin-4-amine], the IC50 in assay [1] turned out to be 0.145 µM; in assay [2], 0.0953 µM.

For `Cc1nc(NC(C)c2ccc(-c3ccccc3CN(C)C)s2)c2cc(NS(C)(=O)=O)ccc2n1` (stereo not drawn) [Example 438, N-(4-{[1-(5-{2-[(dimethylamino)methyl]phenyl}thiophen-2-yl)ethyl]amino}-2-methylquinazolin-6-yl)methanesulfonamide], the values for the IC50 in assay [1] and in assay [2] were 0.0902 µM and 0.0655 µM, respectively.

The record behind these values is patent US20240083857A1, “2-Methyl-Quinazolines” (Bayer Pharma Aktiengesellschaft, priority 2017, published 2024).
